The source of these data is patent US8883827B2, “Azole derivatives as WTN pathway inhibitors” (Oslo University Hospital HF, priority 2009, dated 2014).

In assay [1] the test system is canonical Wnt signaling. The assay is described as follows: ST-Luc (SuperTOPFlash) Luciferase assay in HEK293 cells, 30% Wnt3a-CM. Format: cell-based. Conditions: Homo sapiens, 24 h. A digest of the protocol:
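HEK293 cells were transiently co-transfected with SuperTOPFlash firefly luciferase and pRL-TK Renilla reporters, then treated 24 h with 10 μM compound in 30% Wnt3a-conditioned medium. Dual luciferase activity was read, and percent activity was expressed relative to DMSO control.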

Assay [2] concerns HeLa (cervical adenocarcinoma) cells. Kind of assay: MTS cell growth assay (Example 27). It is filed as cell-based. The following applies: 72 h. As for the experimental part: (§1) 3000 cells were seeded on 96 well plates in quadruplicates for each sample. The following day, cell culture medium was mixed with compound No. 1 in various concentrations or with 0.5% DMSO vehicle (control) and added to the wells.
(§2) Eight wells of seeded control cells, defining incubation time 0 (t0), were incubated with 20 μl substrate in 100 μl phenol-free D-MEM (Invitrogen) for 3 hours, as described in the CellTiter 96® AQueous Non-Radioactive Cell Proliferation Assay (MTS) protocol (Promega). The A490 value was recorded.
(§3) Samples were measured after 72 hours. The following formula was used to determine the single well relative A490 sample values: ((Sample A490−Average A490 to)×100)/(Average A490 0.5% DMSO control−Average A490 t0).
(In general: Formazan colour is commonly taken as a measure of viable cells.)

In the next assay the test system is MeWo (melanoma) cells. The assay is described as follows: MTS cell growth assay (Example 27). It is filed as cell-based. The following applies: 72 h. As for the experimental part:
as §1, §2, §3

The subject of assay [3] is THLE2 (hepatocytes) cells. Kind of assay: MTS cell growth assay (Example 27). Conditions: 72 h. Format: cell-based. The procedure:
as §1, §2, §3

The subject of assay [4] is canonical Wnt signaling. Kind of assay: IC50 in STF/REN HEK293 cells, 50% Wnt3a-CM. It is filed as cell-based. The following applies: Homo sapiens; STF/REN HEK293, 50% Wnt3a-CM, 24 h. Put shortly:
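HEK293 cells carrying STF/REN reporters seeded at 80,000/well on poly-L-lysine; after 24 h, exposed 24 h to compound in 50% Wnt3a-conditioned medium. Firefly and Renilla luciferase measured by Dual-Glo; IC50 fitted to a Langmuir binding isotherm.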

The test system of the next assay is SW480 cells. Kind of assay: Growth inhibition (GI50) MTS assay. It is filed as cell-based. Conditions: Homo sapiens, 72 h. As for the experimental part: Growth inhibition curves were prepared using SW480 cells, prepared essentially according to Example 23. SW480 cells (3000 cells per well) were seeded on 96 well plates (eight replicates per treatment). 24 hours later and daily thereafter, cell culture media (including 10% FBS) was mixed with various compound concentrations or with 0.1% DMSO vehicle and then added to the wells. Sixteen wells of seeded control cells, defining incubation time zero (to =24 hour after cell seeding), were incubated with […] substrate in 100 μl of phenol-free D-MEM (Invitrogen) for 2 hours, as described in the CellTiter 96® AQueous Non-Radioactive Cell Proliferation Assay protocol (MTS, Promega). The A490 was recorded. The treatment samples were likewise measured after 72 hours. The following formula was used to determine the single well relative A490 sample values: ((Sample A490−Average A490t0)*100)/(Average A490t720.1% DMSO control−Average A490t0)
XLfit (idbs) was used to determine the IC50 and GI50 values in inhibition experiments. The data were fit to the following formulae:
GI50: Eadie-Hofstee Model: fit=(A+((B*x)/((C*(D+1))+x))) inv=(((y−A)*(C*(D+1)))/((A+B)−y)) res=(y−fit)

Another assay deals with T1, CD45(h) (Homo sapiens, UniProt P08575).
T1 construct: purchased Millipore (KinaseProfiler service)
Kind of assay: Phosphatase screen. Conditions: 0.1% DMSO control = 100%. Format: biochemical.

A further assay deals with T2, MKP5(h) (Homo sapiens, UniProt Q9Y6W6).
T2 construct: purchased Millipore (KinaseProfiler service)
Kind of assay: Phosphatase screen. Format: biochemical. Conditions: 0.1% DMSO control = 100%.

For another assay, the target named is T3, AMPKα1(h) (Homo sapiens, UniProt Q13131).
T3 construct: purchased Millipore (KinaseProfiler service)
Kind of assay: Kinase screen. It is filed as biochemical. The following applies: 0.1% DMSO control = 100%.

In the next assay the target is T4, CDK7/cyclinH/MAT1(h) (Homo sapiens, UniProt P50613).
T4 construct: purchased Millipore (KinaseProfiler service)
The assay is described as follows: Kinase screen. It is filed as biochemical. Conditions: 0.1% DMSO control = 100%.

The target in a further assay is T5, MLK1(h) (Homo sapiens, UniProt P80192).
T5 construct: purchased Millipore (KinaseProfiler service)
Kind of assay: Kinase screen. Conditions: 0.1% DMSO control = 100%. It is filed as biochemical.

In another assay the target is T6, PKA(h) (Homo sapiens, UniProt P17612).
T6 construct: purchased Millipore (KinaseProfiler service)
The assay is described as follows: Kinase screen. It is filed as biochemical. The following applies: 0.1% DMSO control = 100%.

For a further assay, the target named is T7, PKBα(h) (Homo sapiens, UniProt P31749).
T7 construct: purchased Millipore (KinaseProfiler service)
The assay is described as follows: Kinase screen. It is filed as biochemical. The following applies: 0.1% DMSO control = 100%.

For a further assay, the target named is T8, PKCα(h) (Homo sapiens, UniProt P17252).
T8 construct: purchased Millipore (KinaseProfiler service)
Kind of assay: Kinase screen. Format: biochemical. The following applies: 0.1% DMSO control = 100%.

For another assay, the target named is T9, Rsk1(h) (Homo sapiens, UniProt Q15418).
T9 construct: purchased Millipore (KinaseProfiler Service)
Kind of assay: Kinase screen. It is filed as biochemical. The following applies: 0.1% DMSO control = 100%.

The next assay deals with Hh (Shh) pathway. The assay is described as follows: Shh Light II (Gli1-Luc) reporter assay. Conditions: 1 or 10 μM, 48 h, 50% Shh-CM. (In general: Reporter assays use an easily measured gene product as a stand-in for the process of interest.)

T4 sequence (P50613 whole entry): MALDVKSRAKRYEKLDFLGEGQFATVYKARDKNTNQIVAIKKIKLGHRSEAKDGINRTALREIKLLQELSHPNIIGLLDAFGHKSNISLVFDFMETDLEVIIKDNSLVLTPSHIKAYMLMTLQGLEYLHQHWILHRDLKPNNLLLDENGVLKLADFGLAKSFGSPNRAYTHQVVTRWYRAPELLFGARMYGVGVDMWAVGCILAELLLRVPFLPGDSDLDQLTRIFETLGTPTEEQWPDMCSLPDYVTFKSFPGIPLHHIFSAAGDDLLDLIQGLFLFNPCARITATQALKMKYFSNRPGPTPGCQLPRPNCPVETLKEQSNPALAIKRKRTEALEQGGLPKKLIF
T4 sequence (P51946 whole entry partner): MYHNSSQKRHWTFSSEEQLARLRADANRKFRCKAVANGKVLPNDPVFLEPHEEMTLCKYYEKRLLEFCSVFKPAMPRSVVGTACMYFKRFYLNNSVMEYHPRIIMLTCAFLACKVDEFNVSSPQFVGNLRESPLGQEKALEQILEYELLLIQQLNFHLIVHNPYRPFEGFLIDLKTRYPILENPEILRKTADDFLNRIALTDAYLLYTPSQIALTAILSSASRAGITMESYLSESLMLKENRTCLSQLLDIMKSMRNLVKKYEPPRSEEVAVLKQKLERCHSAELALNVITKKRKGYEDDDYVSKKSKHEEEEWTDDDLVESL
T4 sequence (P51948 whole entry partner): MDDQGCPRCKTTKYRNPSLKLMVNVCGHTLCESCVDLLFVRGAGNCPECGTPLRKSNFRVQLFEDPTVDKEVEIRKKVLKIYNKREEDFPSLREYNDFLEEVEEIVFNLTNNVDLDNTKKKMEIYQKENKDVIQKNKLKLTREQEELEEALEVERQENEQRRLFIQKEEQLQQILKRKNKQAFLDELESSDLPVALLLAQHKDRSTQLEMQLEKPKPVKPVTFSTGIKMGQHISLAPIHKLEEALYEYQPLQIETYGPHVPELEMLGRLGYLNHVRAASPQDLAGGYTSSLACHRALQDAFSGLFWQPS
T7 sequence (P31749 whole entry): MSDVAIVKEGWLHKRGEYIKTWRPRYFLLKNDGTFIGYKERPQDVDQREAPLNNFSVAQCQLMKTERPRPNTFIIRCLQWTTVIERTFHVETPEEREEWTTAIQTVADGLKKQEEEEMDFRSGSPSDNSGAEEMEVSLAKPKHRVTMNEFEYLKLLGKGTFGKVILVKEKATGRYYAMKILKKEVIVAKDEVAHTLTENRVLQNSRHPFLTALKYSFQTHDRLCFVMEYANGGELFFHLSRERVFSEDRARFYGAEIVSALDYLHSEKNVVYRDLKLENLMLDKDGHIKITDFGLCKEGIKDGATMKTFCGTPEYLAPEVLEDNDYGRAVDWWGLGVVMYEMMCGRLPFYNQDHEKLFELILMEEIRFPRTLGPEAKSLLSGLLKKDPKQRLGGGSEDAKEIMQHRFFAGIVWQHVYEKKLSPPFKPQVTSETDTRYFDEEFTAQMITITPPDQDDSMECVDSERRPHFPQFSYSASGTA
T5 sequence (P80192 whole entry): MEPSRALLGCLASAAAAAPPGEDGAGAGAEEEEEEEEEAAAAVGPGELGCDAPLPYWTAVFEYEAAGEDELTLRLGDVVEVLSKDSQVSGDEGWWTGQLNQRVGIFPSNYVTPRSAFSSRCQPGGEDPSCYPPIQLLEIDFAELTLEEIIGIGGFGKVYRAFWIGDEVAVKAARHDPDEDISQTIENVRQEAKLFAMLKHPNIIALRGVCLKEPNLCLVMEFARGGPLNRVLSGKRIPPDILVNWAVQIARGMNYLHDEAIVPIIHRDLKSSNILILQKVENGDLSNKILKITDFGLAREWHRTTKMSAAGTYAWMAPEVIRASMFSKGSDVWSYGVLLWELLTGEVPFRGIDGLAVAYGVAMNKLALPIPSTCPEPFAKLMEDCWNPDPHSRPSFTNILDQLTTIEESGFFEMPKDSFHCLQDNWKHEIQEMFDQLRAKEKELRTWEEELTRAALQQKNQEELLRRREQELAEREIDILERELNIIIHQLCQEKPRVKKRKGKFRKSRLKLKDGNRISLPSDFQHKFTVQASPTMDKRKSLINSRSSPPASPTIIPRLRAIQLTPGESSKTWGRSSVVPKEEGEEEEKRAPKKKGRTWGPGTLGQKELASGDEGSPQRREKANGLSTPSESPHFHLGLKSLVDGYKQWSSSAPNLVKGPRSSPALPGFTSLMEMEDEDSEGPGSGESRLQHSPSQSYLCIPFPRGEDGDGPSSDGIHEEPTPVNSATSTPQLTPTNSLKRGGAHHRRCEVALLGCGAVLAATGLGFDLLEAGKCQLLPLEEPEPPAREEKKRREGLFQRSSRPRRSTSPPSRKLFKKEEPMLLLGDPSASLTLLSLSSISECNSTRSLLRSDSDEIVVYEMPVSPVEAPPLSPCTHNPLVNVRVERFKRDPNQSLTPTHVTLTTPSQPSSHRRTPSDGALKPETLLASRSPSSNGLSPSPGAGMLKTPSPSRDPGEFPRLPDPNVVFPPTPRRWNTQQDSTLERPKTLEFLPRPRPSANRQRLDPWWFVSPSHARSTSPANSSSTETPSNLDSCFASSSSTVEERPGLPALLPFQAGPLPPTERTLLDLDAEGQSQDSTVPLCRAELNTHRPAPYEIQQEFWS
T1 sequence (P08575 26-1306): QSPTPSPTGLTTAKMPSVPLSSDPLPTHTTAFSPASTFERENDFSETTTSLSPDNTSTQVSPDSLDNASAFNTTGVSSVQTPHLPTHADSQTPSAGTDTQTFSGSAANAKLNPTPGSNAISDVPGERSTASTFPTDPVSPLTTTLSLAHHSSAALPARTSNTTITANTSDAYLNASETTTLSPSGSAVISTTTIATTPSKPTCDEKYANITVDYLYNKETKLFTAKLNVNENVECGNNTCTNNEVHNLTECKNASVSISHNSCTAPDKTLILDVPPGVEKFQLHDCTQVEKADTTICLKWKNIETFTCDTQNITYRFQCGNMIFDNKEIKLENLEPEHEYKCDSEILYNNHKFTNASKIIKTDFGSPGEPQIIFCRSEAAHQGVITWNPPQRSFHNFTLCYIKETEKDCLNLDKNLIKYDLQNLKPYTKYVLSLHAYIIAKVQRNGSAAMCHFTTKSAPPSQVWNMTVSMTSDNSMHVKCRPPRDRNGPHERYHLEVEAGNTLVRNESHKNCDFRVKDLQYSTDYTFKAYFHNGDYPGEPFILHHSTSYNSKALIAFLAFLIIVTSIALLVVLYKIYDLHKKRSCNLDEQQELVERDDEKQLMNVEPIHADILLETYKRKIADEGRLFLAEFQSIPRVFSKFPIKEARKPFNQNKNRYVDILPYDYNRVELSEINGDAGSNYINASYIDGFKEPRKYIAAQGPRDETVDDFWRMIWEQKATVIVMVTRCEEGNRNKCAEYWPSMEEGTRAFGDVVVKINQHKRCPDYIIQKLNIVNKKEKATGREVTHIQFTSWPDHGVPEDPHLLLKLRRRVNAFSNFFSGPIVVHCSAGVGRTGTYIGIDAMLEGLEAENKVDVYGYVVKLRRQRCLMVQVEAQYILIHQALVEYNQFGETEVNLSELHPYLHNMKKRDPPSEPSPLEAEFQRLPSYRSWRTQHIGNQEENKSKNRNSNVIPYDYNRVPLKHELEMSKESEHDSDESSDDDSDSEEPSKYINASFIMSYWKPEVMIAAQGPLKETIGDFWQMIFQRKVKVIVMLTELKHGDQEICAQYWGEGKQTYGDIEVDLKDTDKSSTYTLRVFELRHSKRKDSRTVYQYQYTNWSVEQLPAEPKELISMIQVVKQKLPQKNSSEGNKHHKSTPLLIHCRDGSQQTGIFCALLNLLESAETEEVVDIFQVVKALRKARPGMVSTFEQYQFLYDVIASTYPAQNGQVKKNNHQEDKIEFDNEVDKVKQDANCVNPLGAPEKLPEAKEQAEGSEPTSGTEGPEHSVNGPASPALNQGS
T3 sequence (Q13131 whole entry): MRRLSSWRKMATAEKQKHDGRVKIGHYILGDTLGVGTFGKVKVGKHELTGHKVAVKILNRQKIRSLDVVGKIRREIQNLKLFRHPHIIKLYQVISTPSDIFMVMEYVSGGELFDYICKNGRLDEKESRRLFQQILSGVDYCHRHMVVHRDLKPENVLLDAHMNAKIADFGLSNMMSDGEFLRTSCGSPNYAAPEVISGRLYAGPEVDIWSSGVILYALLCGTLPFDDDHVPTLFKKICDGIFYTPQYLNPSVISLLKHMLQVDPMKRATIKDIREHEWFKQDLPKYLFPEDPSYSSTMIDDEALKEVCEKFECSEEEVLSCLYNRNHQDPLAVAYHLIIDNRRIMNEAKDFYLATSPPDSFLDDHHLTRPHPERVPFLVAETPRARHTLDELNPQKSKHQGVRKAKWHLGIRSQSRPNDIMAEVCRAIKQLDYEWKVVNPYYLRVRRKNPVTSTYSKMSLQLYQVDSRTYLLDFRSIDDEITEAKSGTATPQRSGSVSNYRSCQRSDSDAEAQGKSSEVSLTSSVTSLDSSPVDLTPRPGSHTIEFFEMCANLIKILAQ
T3 sequence (Q9Y478 whole entry partner): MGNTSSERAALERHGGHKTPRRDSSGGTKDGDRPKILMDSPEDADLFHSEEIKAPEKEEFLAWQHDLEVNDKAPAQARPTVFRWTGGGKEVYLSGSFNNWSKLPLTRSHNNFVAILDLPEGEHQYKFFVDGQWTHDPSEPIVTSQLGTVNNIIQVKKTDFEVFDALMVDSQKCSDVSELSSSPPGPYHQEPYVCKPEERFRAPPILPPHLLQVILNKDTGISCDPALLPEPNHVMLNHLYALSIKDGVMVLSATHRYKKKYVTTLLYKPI
T3 sequence (P54619 whole entry partner): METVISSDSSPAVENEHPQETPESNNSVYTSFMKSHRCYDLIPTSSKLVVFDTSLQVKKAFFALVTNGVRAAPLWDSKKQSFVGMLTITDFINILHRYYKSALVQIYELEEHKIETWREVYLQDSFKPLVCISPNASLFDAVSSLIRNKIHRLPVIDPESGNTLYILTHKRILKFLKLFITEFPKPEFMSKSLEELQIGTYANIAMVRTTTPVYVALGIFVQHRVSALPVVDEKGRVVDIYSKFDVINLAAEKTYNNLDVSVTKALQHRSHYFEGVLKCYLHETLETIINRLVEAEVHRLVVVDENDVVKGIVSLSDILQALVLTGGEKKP
From the text for Hh (Shh) pathway: 1) a stable reporter line for sonic hedgehog pathway, Shh Light II cells (Glil-Luc-purchased from ATCC and maintained according to suppliers recommendations);

As a reminder, the IC50 is the concentration that gives 50% inhibition. The term GI50 denotes the concentration giving 50% growth inhibition. Low readings indicate more potent growth inhibition, high ones less potent growth inhibition. As for `COc1ccc(-n2c(SCc3nc(-c4ccc(C)cc4)no3)nnc2-c2ccncc2)cc1` [Compound 1], the activity at 10 µM was 15.4% in the assay on canonical Wnt signaling [1] (HEK293, 10 μM compound, 30% Wnt3a-CM, relative to DMSO control); 108% at CD45(h); 99% on MKP5(h); 95% at AMPKα1(h); 108% on CDK7/cyclinH/MAT1(h); 99% at MLK1(h). Besides, the activity at 10 µM at PKA(h) came to 86%; at PKBα(h) it was 79%; at PKCα(h), 105%; on Rsk1(h), 108%. Also, the half-maximal inhibitory concentration (IC50) in the assay on canonical Wnt signaling [1] (HEK293, 30% Wnt3a-CM, 0.1-10 μM, read-out: IC50, reduction of canonical Wnt signaling by the ST-Luc assay) is 1 µM; in the assay with canonical Wnt signaling [4], 1.01 µM. The growth reduction result (in assay [2]; with MeWo (melanoma) cells; in assay [3]) was “only a minor growth reduction” throughout. In addition, the 50% growth inhibitory concentration (GI50) in the assay with SW480 cells worked out at 11.5 µM. In addition, the “effect against the Hh (Shh) pathway” value in the assay with Hh (Shh) pathway is on record as “no substantial activating or inhibitory effect”.
